The values that follow are results of earlier work, collected in publication PMC2096531 (Purinergic Signalling, 2005).

Structures are written as SMILES.

The term EC50 denotes the midpoint of the concentration-response curve.

This series deals with human A2B receptors. The following applies: read-out: EC50 A2B, agonist.

With `CCNC(=O)[C@H]1O[C@@H](n2cnc3c(N)nc(C#CC(O)c4ccccc4)nc32)[C@H](O)[C@@H]1O` (stereo partly drawn) [(R,S)-PHPNECA, (R,S)-2-phenyhydroxypropynyl-N-ethylcarboxamidoadenosine], the 50% effective concentration (EC50) was 1100 nM.
